Experimental findings from the NIST ThermoML archive (doi:10.1016/j.jct.2015.05.011) are described below.

For data set [1] the following is noted: Liquid; for viscosity: Falling or rolling sphere viscometry; for mass density: Vibrating tube method.
A short description of data set [2]: refractive index (Na D-line) (dimensionless). The conditions noted are these: 298.15 K; 100 kPa; Liquid; Standard Abbe refractometry.
A short description of data set [3]: xn = mol fraction of the nth substance listed. Particulars: 298.15 K; 100 kPa; Liquid; Falling or rolling sphere viscometry; x1 = 1.
Data set [4] is described as follows: refractive index (Na D-line) (dimensionless); xn = mol fraction of the nth substance listed. Particulars: 298.15 K; 100 kPa; Liquid; Standard Abbe refractometry; x1 = 1.

Numbers after ± are expanded uncertainties.

Regarding `O` [water], the viscosity in data set [1] (298.15 K, 100 kPa) came out at 0.89 ± 0.02 mPa·s. For the same compound, the refractive index in data set [2] is listed as 1.33252 ± 0.00035.
Consider `O` [water] + CCn1cc[n+](C)c1.N#C[C-](C#N)C#N, for which, in data set [3], the viscosity was 0.89 ± 0.02 mPa·s. In data set [4], the refractive index is 1.33252 ± 0.00035.
On to `CCn1cc[n+](C)c1.N#C[C-](C#N)C#N` [1-ethyl-3-methyl-1H-imidazolium tricyanomethanide], for which the viscosity in data set [1] (288.15 K, 101.33 kPa) stood at 19.9 ± 0.43 mPa·s; in data set [1] (293.15 K, 101.33 kPa), 16.54 ± 0.35 mPa·s; in data set [1] (298.15 K, 101.33 kPa) it was 14 ± 0.3 mPa·s; in data set [1] (303.15 K, 101.33 kPa) it was 11.99 ± 0.26 mPa·s; in data set [1] (308.15 K, 101.33 kPa) it was 10.32 ± 0.22 mPa·s; in data set [1] (313.15 K, 101.33 kPa) it was 8.9 ± 0.19 mPa·s. In addition, the viscosity in data set [1] (318.15 K, 101.33 kPa) was 7.82 ± 0.17 mPa·s. Besides, the mass density in data set [1] (288.15 K, 101.33 kPa) is listed as 1088.49 ± 0.15 kg/m3; in data set [1] (293.15 K, 101.33 kPa) it was 1084.93 ± 0.15 kg/m3; in data set [1] (298.15 K, 101.33 kPa), 1081.38 ± 0.15 kg/m3; in data set [1] (303.15 K, 101.33 kPa), 1077.84 ± 0.15 kg/m3; in data set [1] (308.15 K, 101.33 kPa), 1074.33 ± 0.15 kg/m3; in data set [1] (313.15 K, 101.33 kPa), 1070.83 ± 0.15 kg/m3. Further, the mass density in data set [1] (318.15 K, 101.33 kPa) is on record as 1067.35 ± 0.14 kg/m3. The refractive index in data set [2] was found to be 1.51227 ± 0.00036.

The term viscosity denotes the resistance of a fluid to flow. For orientation: refractive index means the speed of light in vacuum divided by its phase velocity in the sample. Usually mass density stands for the mass of a sample divided by its volume.
